Reference: US10568344B2, “Methods of improving animal performance” (Novozymes A/S, priority 2015, dated 2020)
Read-outs that look alike come from different tables or passages of the source. Marks after values point to notes of the source that are not given here.

Columns and labels:
[1] = In vivo broiler trial 2, growth performance; set-up: species or system male broiler chickens; settings: for FCR / FCR, Relative to C (%) / Feed intake / Feed intake, Relative to C (%) / Weight gain / Weight gain, Relative to C (%): 10 mg/kg feed; for Improvement of FCR compared to the control diet / Improvement of weight gain compared to the control diet: 10 mg/kg
Experimental: No additional enzymes (e.g. phytase) were added to the feed. The experimental diets (Starter and Grower) were based on soybean meal, wheat and rye (12%) as main ingredients (Table 6). The diets were formulated to contain 222 g crude protein and 12.5 MJ/kg MEN for the starter period and 204 g crude protein and 12.7 MJ/kg MEN for the grower period.

[2] = In vivo broiler trial 3, growth performance; set-up: species or system male broiler chickens; Motality: unit not given here
Experimental: The in vivo trial was carried out as described in example 7, except the feed was supplemented with the GH25 lysozyme (SEQ ID NO: 1) at 12.5 or 25 mg per kg feed, the GH24 lysozyme (SEQ ID NO: 4) at 12.5 or 25 mg per kg feed or with Avilamycin at an inclusion level of 10 mg/kg. No additional enzymes (e.g. phytase) were added to the feed. The experimental diets (Starter, Grower and Finisher) were based on soybean meal, wheat and rye (12%) as main ingredients (Table 8). The diets were formulated to contain 225 g crude protein and 12.5 MJ/kg MEN for the starter period, 215 g crude protein and 12.8 MJ/kg MEN for the grower period and 205 g crude protein and 13.0 MJ/kg MEN for the finisher period.

[3] = In vivo broiler trial 1, growth performance; set-up: species or system male broiler chickens (ROSS PM3); settings: for Improvement of FCR compared to the control diet / Improvement of weight gain compared to the control diet: 10 mg/kg; for FCR / FCR, Relative to C (%) / Feed intake / Feed intake, Relative to C (%) / Weight gain / Weight gain, Relative to C (%): 10 mg/kg feed
[4] = In vivo piglet trial, growth performance; set-up: species or system weaned piglets
Experimental: The trial was performed from Oct. 23 to Dec. 4, 2014 at the Research Center for Animal Nutrition (DSM Nutritional Products France, F-68305 Village-Neuf) according to the official French guidelines for experiments with live animals. One hundred and four castrated male crossbred (Large-White (female)×Redon (male)) weaned piglets having 28 days of age supplied by the commercial farm “[…] du Rhin” located in Balgau (France), were used in a 42-day experiment. The initial bodyweight of the piglets was 7.88±0.675 kg. They were sorted by body weight into 32 groups of 3 or 4 piglets and randomly allotted to each dietary treatment. Each group of animals was placed in one flat-deck cages and allocated to one of the different treatments. Each treatment was replicated with 8 cages using a total of 26 animals (6 cages of 3 animals/treatment and 2 cages of 4 animals/treatment) per treatment. […] Animals were housed in an environmentally controlled room. Room temperature was initially 27° C. and was lowered weekly by about 2° C. until 21-22° C. and relative humidity percentage was 50%. The experimental diets (Pre-Starter and Starter) were fed ad libitum in two feeding phases from day 0 to 14 (phase 1, Pre-starter) and day 14 to 42 (phase 2, Starter). The ingredient composition and the calculated nutrient levels of the experimental diets for phases 1 and 2 are presented in table 11. Both diets were formulated to meet the animals' requirements according NRC (2012) and were fed in pelleted form. Pelleting conditions were at 70° C. for 30 seconds. […] No additional enzymes (e.g. phytase) were added to the feed. […] Appropriate amount of the liquid preparations of lysozyme was diluted in water and sprayed onto the respective pelleted feed to get the final concentrations in the feed corresponding to the different treatments. For procedural balance of all treatments the same volume of water were also sprayed onto the pellets of the control diets. Body weight of the individual animals and feed consumption per pen were recorded on days 14 and 42 of the study. […] The experimental unit was the piglet, except for ADFI and FCR which were measured by cage, and in both cases, treatment was used as class variable. One-factorial ANOVA and Student-Newman-Keuls test was used to assess differences among means in treatment groups.

[5] = tested on: Clostridium perfringens DSM756; format: cell-based; settings: for Diameter of clearing zone: lysozymes 100 μg/ml, bacitracin 50 μg/ml
[6] = tested on: Micrococcus lysodeikticus ATTC No. 4698; assay: Lysozyme activity turbidity assay (optical density drop); settings: pH 6
[7] = tested on: Exiguobacterium undae (DSM14481); assay: as above; format: biochemical; settings: pH 6
[8] = Finisher (d 36-42), 10 mg/kg feed
[9] = Grower (d 22-36), 10 mg/kg feed
[10] = Starter (d 1-22), 10 mg/kg feed
[11] = Whole period (d 1-42), 10 mg/kg feed

COC[C@H]1O[C@@H](OC2OC[C@@H]3O[C@]4(O[C@H]3[C@H]2OC(=O)C(C)C)O[C@H](C)[C@@](O)(C(C)=O)[C@@H]2OCO[C@H]24)[C@@H](OC)[C@@H](O)[C@@H]1O[C@@H]1O[C@H](C)[C@H](OC)[C@H](O[C@H]2C[C@@]3(C)OC4(C[C@@H](O)[C@H](O[C@H]5C[C@@H](O)[C@H](OC(=O)c6c(C)c(Cl)c(O)c(Cl)c6OC)[C@@H](C)O5)[C@@H](C)O4)O[C@@H]3[C@@H](C)O2)[C@H]1O (stereo partly drawn) [Avilamycin, reference compound]
FCR ([1]; Grower (d 22-36)): 1.621^b
FCR, Relative to C (%) ([1]; Grower (d 22-36)): 94.2%
Feed intake ([1]; Grower (d 22-36)): 2599 g/b
Feed intake, Relative to C (%) ([1]; Grower (d 22-36)): 95.2%
Weight gain ([1]; Grower (d 22-36)): 1605 g/b
Weight gain, Relative to C (%) ([1]; Grower (d 22-36)): 101.2%
FCR ([1]; Starter (d 1-22)): 1.421^a
FCR, Relative to C (%) ([1]; Starter (d 1-22)): 103%
Feed intake ([1]; Starter (d 1-22)): 1517^a g/b
Feed intake, Relative to C (%) ([1]; Starter (d 1-22)): 103.1%
Weight gain ([1]; Starter (d 1-22)): 1070 g/b
Weight gain, Relative to C (%) ([1]; Starter (d 1-22)): 100.2%
FCR ([1]; Whole period (d 1-36)): 1.537^c
FCR, Relative to C (%) ([1]; Whole period (d 1-36)): 97.4%
Feed intake ([1]; Whole period (d 1-36)): 4111 g/b
Feed intake, Relative to C (%) ([1]; Whole period (d 1-36)): 98.1%
Weight gain ([1]; Whole period (d 1-36)): 2675 g/b
Weight gain, Relative to C (%) ([1]; Whole period (d 1-36)): 100.8%
Improvement of FCR compared to the control diet ([1]; day 1 to day 36): 2.6%
Improvement of FCR compared to the control diet ([1]; grower period): 5.8%
Improvement of weight gain compared to the control diet ([1]; grower period): 1.2%
Improvement of FCR compared to the control diet ([1]; starter period): No improvement
Improvement of weight gain compared to the control diet ([1]; starter period): No improvement
FCR [2, 8]: 1.982
FCR, Relative to C (%) [2, 8]: 101.1%
Feed intake [2, 8]: 1460 g/b
Feed intake, Relative to C (%) [2, 8]: 98.2%
Weight gain [2, 8]: 738 g/b
Weight gain, Relative to C (%) [2, 8]: 97.0%
FCR [2, 9]: 1.683
FCR, Relative to C (%) [2, 9]: 97.7%
Feed intake [2, 9]: 2242 g/b
Feed intake, Relative to C (%) [2, 9]: 98.1%
Weight gain [2, 9]: 1334 g/b
Weight gain, Relative to C (%) [2, 9]: 100.4%
FCR [2, 10]: 1.452
FCR, Relative to C (%) [2, 10]: 100.8%
Feed intake [2, 10]: 1593 g/b
Feed intake, Relative to C (%) [2, 10]: 101.0%
Weight gain [2, 10]: 1102 g/b
Weight gain, Relative to C (%) [2, 10]: 100.6%
EPEF [2, 11]: 397
EPEF, Relative to C (%) [2, 11]: 95.0%
FCR [2, 11]: 1.669
FCR, Relative to C (%) [2, 11]: 99.3%
Feed intake [2, 11]: 5312 g/b
Feed intake, Relative to C (%) [2, 11]: 99.3%
Motality [2, 11]: 12.5
Weight gain [2, 11]: 3184 g/b
Weight gain, Relative to C (%) [2, 11]: 99.9%
EPEF worse than NC diet by ([2]; whole period, 10 mg/kg): 5.0%
FCR improvement compared to NC diet ([2]; whole period, 10 mg/kg): 0.7%
Improvement of FCR compared to the control diet [3]: 2.3%
FCR ([3]; Grower (d 22-36)): 1.694^abc
FCR, Relative to C (%) ([3]; Grower (d 22-36)): 97.7%
Feed intake ([3]; Grower (d 22-36)): 2976^ab g/b
Feed intake, Relative to C (%) ([3]; Grower (d 22-36)): 97.6%
Weight gain ([3]; Grower (d 22-36)): 1757 g/b
Weight gain, Relative to C (%) ([3]; Grower (d 22-36)): 99.8%
FCR ([3]; Starter (d 1-22)): 1.695^c
FCR, Relative to C (%) ([3]; Starter (d 1-22)): 93.3%
Feed intake ([3]; Starter (d 1-22)): 1943 g/b
Feed intake, Relative to C (%) ([3]; Starter (d 1-22)): 97.4%
Weight gain ([3]; Starter (d 1-22)): 1147 g/b
Weight gain, Relative to C (%) ([3]; Starter (d 1-22)): 104.1%
FCR ([3]; Whole period (d 1-36)): 1.694^bc
FCR, Relative to C (%) ([3]; Whole period (d 1-36)): 96%
Feed intake ([3]; Whole period (d 1-36)): 4918^ab g/b
Feed intake, Relative to C (%) ([3]; Whole period (d 1-36)): 97.5%
Weight gain ([3]; Whole period (d 1-36)): 2903 g/b
Weight gain, Relative to C (%) ([3]; Whole period (d 1-36)): 101.5%
Improvement of FCR compared to the control diet ([3]; day 1 to day 36): 4%
Improvement of weight gain compared to the control diet ([3]; day 1 to day 36): 1.5%
Improvement of weight gain compared to the control diet ([3]; starter period): 4.1%

O=C(O)c1ccccc1 [VevoVital, benzoic acid]
ADFI, % relative NC ([4]; day 0-14, 5000 mg/kg feed): 98.6%
ADFI, Mean ([4]; day 0-14, 5000 mg/kg feed): 355 g/day
ADWG, % relative NC ([4]; day 0-14, 5000 mg/kg feed): 104.8%
ADWG, Mean ([4]; day 0-14, 5000 mg/kg feed): 304 g/day
FCR, % relative NC ([4]; day 0-14, 5000 mg/kg feed): 94.2%
FCR, Mean ([4]; day 0-14, 5000 mg/kg feed): 1.168^a
ADFI, % relative NC ([4]; day 0-42, 5000 mg/kg feed): 96.6%
ADFI, Mean ([4]; day 0-42, 5000 mg/kg feed): 709^ab g/d
ADWG, % relative NC ([4]; day 0-42, 5000 mg/kg feed): 105.4%
ADWG, Mean ([4]; day 0-42, 5000 mg/kg feed): 526 g/day
EPEF, % relative NC ([4]; day 0-42, 5000 mg/kg feed): 116.2%
EPEF, Mean ([4]; day 0-42, 5000 mg/kg feed): 394
FCR, % relative NC ([4]; day 0-42, 5000 mg/kg feed): 90.4%
FCR, Mean ([4]; day 0-42, 5000 mg/kg feed): 1.342^a
ADFI, % relative NC ([4]; day 14-42, 5000 mg/kg feed): 95.3%
ADFI, Mean ([4]; day 14-42, 5000 mg/kg feed): 886^ab g/d
ADWG, % relative NC ([4]; day 14-42, 5000 mg/kg feed): 105.8%
ADWG, Mean ([4]; day 14-42, 5000 mg/kg feed): 638 g/day
FCR, % relative NC ([4]; day 14-42, 5000 mg/kg feed): 90.5%
FCR, Mean ([4]; day 14-42, 5000 mg/kg feed): 1.398^a
Improvement on FCR compared to the negative control ([4]; overall period (day 0 to day 42), 5000 mg/kg): 9.6%
Improvement of ADWG compared to NC ([4]; pre-starter period, 5000 mg/kg): 4.8%
Improvement to FCR compared to NC ([4]; starter period, day 15 to day 42, 5000 mg/kg): 9.5%
Improvement of ADWG compared to NC ([4]; starter period, 5000 mg/kg): 5.8%
Improvement of ADWG compared to NC ([4]; whole period, 5000 mg/kg): 5.4%

Bacitracin zinc salt [reference compound]
Diameter of clearing zone ([5]; Experiment 1, 1/2 MHB pH 6): 13 mm
Diameter of clearing zone ([5]; Experiment 1, 1/10 MHB pH 7): 23 mm
Diameter of clearing zone ([5]; Experiment 2, 1/2 MHB pH 6): 11 mm
Diameter of clearing zone ([5]; Experiment 2, 1/10 MHB pH 7): 20 mm

SEQ ID NO: 5: mature amino acid sequence of a wild type GH22 lysozyme from Gallus gallus (hen egg white lysozyme), Sigma 62971 [reference compound]
Inhibition zone ([5]; 1/10 MHB, pH7, both experiments): 9-11 mm
Diameter of clearing zone ([5]; Experiment 1, 1/2 MHB pH 6): 0 mm
Diameter of clearing zone ([5]; Experiment 1, 1/10 MHB pH 7): 11 mm
Diameter of clearing zone ([5]; Experiment 2, 1/2 MHB pH 6): 0 mm
Diameter of clearing zone ([5]; Experiment 2, 1/10 MHB pH 7): 9 mm
Clearing zone diameter ([5]; ½ MHB, pH 6, both experiments): no zone of inhibition
Lysozyme activity as measured by Optical Density Drop [6]: +++ (pH 6)
Lysozyme activity as measured by Optical Density Drop [7]: + (pH 6)
